{"source": "ChEMBL document CHEMBL4477198", "about": "“Metabolites from the Fungal Endophyte Aspergillus austroafricanus in Axenic Culture and in Fungal-Bacterial Mixed Cultures” (J Nat Prod, 2016)", "key": {"[1]": {"test_system": "Mycobacterium tuberculosis", "assay": "Antibacterial activity against Mycobacterium tuberculosis H37Rv by broth microdilution method", "type": "functional"}, "[2]": {"test_system": "Staphylococcus aureus", "assay": "Antibacterial activity against Staphylococcus aureus ATCC 700699 by broth microdilution method", "type": "functional"}, "[3]": {"test_system": "L5178Y", "assay": "Cytotoxicity against mouse L5178Y cells by MTT assay", "type": "functional, cell-based"}, "[4]": {"test_system": "Bacillus subtilis", "assay": "Antibacterial activity against Bacillus subtilis 168 trpC2 by broth microdilution method", "type": "functional"}}, "note": "Activity calls are given as the source filed them. The rule behind the calls is not given here."}
{"smiles": "Cc1cc(O)c(O)c(Oc2cc(C)cc(O)c2O)c1", "values": [{"measurement": "Activity", "setting": "[1]", "result": "inactive"}, {"measurement": "MIC", "setting": "[2]", "result": 25, "unit": "µM"}]}
{"smiles": "COc1c(N2C[C@@H]3CCCN[C@@H]3C2)c(F)cc2c(=O)c(C(=O)O)cn(C3CC3)c12", "note": "[MOXIFLOXACIN]", "values": [{"measurement": "MIC", "setting": "[2]", "result": 1.56, "unit": "µg/mL"}]}
{"smiles": "CC1(C)CCC[C@](C)(c2ccc(C(=O)O)cc2O)O1", "values": [{"measurement": "Activity", "setting": "[1]", "result": "inactive"}]}
{"smiles": "O=c1cc(CO)c(O)co1", "values": [{"measurement": "Activity", "setting": "[1]", "result": "inactive"}]}
{"smiles": "CC(C)[C@@H](C)/C=C/[C@@H](C)[C@H]1CC[C@H]2C3=CC=C4C[C@@H](O)CC[C@]4(C)[C@H]3CC[C@]12C", "note": "[ERGOSTEROL]", "values": [{"measurement": "Activity", "setting": "[1]", "result": "inactive"}, {"measurement": "EC50", "setting": "[3]", "result": 12.6, "unit": "µM"}]}
{"smiles": "O=C(O)c1cn(C2CC2)c2cc(N3CCNCC3)c(F)cc2c1=O", "note": "[CIPROFLOXACIN]", "values": [{"measurement": "MIC", "setting": "[4]", "result": 0.008, "unit": "µg/mL"}]}
{"smiles": "COC(=O)c1c(O)ccc2oc3cc(CO)cc(O)c3c(=O)c12", "values": [{"measurement": "Activity", "setting": "[1]", "result": "inactive"}]}
{"smiles": "Cc1cc(O)c(Oc2cc(C)cc(O)c2O)c(O)c1", "values": [{"measurement": "Activity", "setting": "[1]", "result": "inactive"}, {"measurement": "MIC", "setting": "[2]", "result": 25, "unit": "µM"}]}
{"smiles": "Cc1cc(O)cc(Oc2cc(C)cc(O)c2)c1", "note": "[DIORCINOL]", "values": [{"measurement": "Activity", "setting": "[1]", "result": "inactive"}, {"measurement": "MIC", "setting": "[4]", "result": 34.8, "unit": "µM"}]}
{"smiles": "Cc1cc(O)cc(Oc2cc(C)c(C(N)=O)c(O)c2)c1", "values": [{"measurement": "Activity", "setting": "[1]", "result": "inactive"}]}
{"smiles": "C=CC(C)(C)[C@@]12C=C(OC)C(=O)N3/C(=C/c4c[nH]cn4)C(=O)N[C@]31N(OC)c1ccccc12", "values": [{"measurement": "Activity", "setting": "[1]", "result": "inactive"}]}
{"smiles": "CC(C)(O)CCC[C@](C)(O)c1ccc(C(=O)O)cc1", "values": [{"measurement": "Activity", "setting": "[1]", "result": "inactive"}]}
{"smiles": "COc1c(O)c(O)c(O)c2oc3c(Oc4c(O)cc(C)c5c(=O)c6c(O)cc(CO)cc6oc45)c(O)cc(C)c3c(=O)c12", "values": [{"measurement": "Activity", "setting": "[1]", "result": "inactive"}]}
